According to patent publication US8058285B2, “Substituted pyrido [3′, 2′: 4, 5] thieno [3, 2-D] pyrimidines and pyrido [3′, 2′: 4, 5] furo [3, 2-D] pyrimidines used as inhibitors of the PDE-4 and/or the release of TNF-ALPHA” (The Medicines Company (Leipzig) GmbH, priority 2004, dated 2011):
“And” between values parts separate entries of the source, which are not always exact repeats. Equal entries are not always repeated. Structures can show the parent of a compound that is named as a salt.

The compounds below were run against T1, PDE-4A (Homo sapiens, UniProt P27815) (assay: PDE-4A inhibitory assay (SPA)).
T1 construct: PDE-4A catalytic domain comprising amino acids 342-704; made in house; host or cells: Escherichia coli
Type: biochemical
Excerpt: Human recombinant PDE-4A catalytic domain comprising amino acids 342-704 was cloned into Escherichia coli and expressed, as described by W. Richter et al., Protein Expression and Purification (2000) 19: 375-383. The other posphodiesterases were either obtained from cell lines of human origin (TPH1 monocytes line for PDE-1, MCF7 for PDE-5) or expressed recombinantly in sf9 insect cells (for PDE-3A, PDE-3B, PDE-7A and PDE-4D) in accordance with an adapted method by Luckow, V. A. et al., in: Recombinant DNA Technology & Applications., (1991) eds. Prokop, Bajpai, R. K. & Ho, C. S., pp 97-152.
The phosphodiesterase activity was determined by the SPA assay as described by the manufacturer Amersham Biosciences and by Horton J. K and Baxendale P. M., Methods Mol. Biol. (1995) 41: 91-105.
The reaction mixtures contained 100 mM Tris-HCl (pH 7.5), 5 mM MgCl2, 3.8 mM 2-mercaptoethanol, and 1 μM cAMP or cGMP as a substrate, the inhibitors at different concentrations and also further components required for the detection of the individual isoenzymes (see below). The reaction was started by adding the enzyme. The operating volume is 100 μl in the wells of a white 96-Well microtiter plate. The test substances were produced as stock solutions in DMSO. The DMSO concentration in the reaction batch was 1% v/v. The PDE activity is not impaired with this DMSO concentration. Having started the reaction by the addition of enzyme, the samples were incubated at 22° C. for 20 min. The reaction was stopped by the addition of SPA bead suspension which contains the zinc sulfate concentration provided according to the manufacturer. Then, the beads are allowed to sediment for 30 min and the plates are analyzed on the luminescence microtiter plate reader Fluostar Optima (BMG Labtechologies).
[^3H]-cAMP was used as a substrate for determining the activity of PDE-2, -3, -4 and -7 and [^3H]-cGMP for determining the activity of PDE-5. The non-specific enzyme activities were determined in the presence of 100 μM rolipram (for PDE-4) and in the presence of 100 μM IBMX (for PDE-3 and -5) and subtracted from the test values. The incubation samples of the PDE-3 assay contain 10 μM rolipram to inhibit possible contaminations by PDE-4. The PDE-2 activity is tested using a SPA assay by Amersham Biosciences in the presence of the PDE-2 activator 5 μM cGMP. […] The selectivity as to PDEs 2, 3 and 5 has a factor of 100 to 10 000.

T1 sequence (P27815 342-704): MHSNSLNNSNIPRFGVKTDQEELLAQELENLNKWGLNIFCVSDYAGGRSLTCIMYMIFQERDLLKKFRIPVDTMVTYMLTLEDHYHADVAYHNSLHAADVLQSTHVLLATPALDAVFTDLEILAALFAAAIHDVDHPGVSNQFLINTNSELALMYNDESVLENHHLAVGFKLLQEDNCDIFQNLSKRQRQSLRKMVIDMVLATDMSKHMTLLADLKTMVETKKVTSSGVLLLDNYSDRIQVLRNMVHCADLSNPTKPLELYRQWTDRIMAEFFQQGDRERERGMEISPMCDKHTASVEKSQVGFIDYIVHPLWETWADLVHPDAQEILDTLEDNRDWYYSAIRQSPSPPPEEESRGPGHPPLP

| Structure (SMILES) | IC50 |
| --- | --- |
| CCc1cc(-c2ccc(C)cc2)nc2sc3c(N4CCNCC4)nc(OCCO)nc3c12 [2-(2-Hydroxy-ethoxy)-9-ethyl-7-(4-methyl-phenyl)-4-(piperazin-1-yl)-pyrido[3′,2′:4,5]thieno[3,2-d]pyrimidine] | 2 to 50 nM |
| CCOc1nc(N2CCNCC2)nc2c1sc1nc(-c3ccc(C)cc3)cc(CC)c12 [4-Ethoxy-9-ethyl-7-(4-methyl-phenyl)-2-(piperazin-1-yl)-pyrido[3′,2′:4,5]thieno[3,2-d]pyrimidine] | < 2 nM |
| CCOc1nc(N2CCNCC2)nc2c1sc1nc(-c3ccc(-c4cccc(C(=O)O)c4)cc3)nc(C)c12 [4-(4-Ethoxy-9-methyl-2-piperazin-1-yl-thieno[2,3-d:4,5-d′]dipyrimidin-7-yl)-biphenyl-3′-carboxylic acid potassium salt] | 2 to 50 nM |
| CCOc1nc(N2CCNCC2)nc2c1sc1nc(N3CCOCC3)c3c(c12)CCC3 [7-Ethoxy-2,3-dihydro-4-morpholino-9-piperazin-1yl-1H-cyclopenta[4′,5′]pyrido[3′,2′:4,5]thieno[3,2-d]pyrimidine] | 2 to 50 nM |
| CCOc1nc(N2CCNCC2)nc2c1sc1nc(-c3cccc(C#N)c3)cc(C(F)(F)F)c12 [7-(3-Cyano-phenyl)-4-ethoxy-2-piperazin-1-yl-9-trifluoromethyl-pyrido[3′,2′:4,5]thieno[3,2-d]pyrimidine] | < 2 nM |
| CCOc1nc(N2CCNCC2)nc2c1sc1nc(-c3ccc(NC(=O)OC)cc3)cc(C(F)(F)F)c12 [4-(4-Ethoxy-9-trifluoromethyl-2-piperazin-1-yl-pyrido[3′,2′:4,5]thieno[3,2-d]pyrimidin-7-yl)-phenyl-carbamic acid methyl ester] | < 2 nM |
| CCOc1nc(N2CCNCC2)nc2c1sc1nc(-c3ccc(C)cc3)cc(CC(C)C)c12 [9-iso-Butyl-4-ethoxy-7-(4-methyl-phenyl)-2-(piperazin-1-yl)-pyrido[3′,2′:4,5]thieno-[3,2-d]pyrimidine] | 2 to 50 nM |
| CCOc1nc(N2CCNCC2)nc2c1sc1nc(-c3ccc(-c4ccn(C(=O)OC(C)(C)C)c4)cc3)nc(C)c12 [4-Ethoxy-9-methyl-2-piperazin-1-yl-7-(4-[N—BOC-3-pyrrolyl]-phenyl)-thieno[2,3-d:4,5-d′]dipyrimidine] | 2 to 50 nM |
| CCOc1nc(N2CCNCC2)nc2c1sc1nc(-c3ccc(C)cc3)cc(C(C)C)c12 [4-Ethoxy-7-(4-methyl-phenyl)-9-iso-propyl-2-(piperazin-1-yl)-pyrido[3′,2′:4,5]thieno-[3,2-d]pyrimidine] | < 2 nM |
| CCCOc1nc(N2CCNCC2)c2sc3nc(-c4ccccc4)cc(C)c3c2n1 [9-Methyl-7-phenyl-4-piperazin-1-yl-2-n-propoxy-pyrido[3′,2′:4,5]thieno[3,2-d]pyrimidine] | 2 to 50 nM |
| CCOc1nc(N2CCNCC2)nc2c1sc1nc(-c3ccc(Cl)cc3)cc(CC)c12 [7-(4-Chloro-phenyl)-9-ethyl-4-ethoxy-2-(piperazin-1-yl)-pyrido[3′,2′:4,5]thieno[3,2-d]pyrimidine] | 2 to 50 nM |
| CCCc1nc(N2CCNCC2)c2sc3nc(-c4ccc(OC)c(OC)c4)cc(C)c3c2n1 [7-(3,4-Dimethoxy-phenyl)-9-methyl-4-(piperazin-1-yl)-2-n-propyl-pyrido[3′,2′:4,5]thieno[3,2-d]pyrimidine] | 2 to 50 nM |
| CCOc1nc(N2CCNCC2)nc2c1sc1nc(-c3ccc(OC)cc3)cc(C(F)(F)F)c12 [4-Ethoxy-7-(4-methoxy-phenyl)-2-(piperazin-1-yl)-9-trifluoromethyl-pyrido[3′,2′:4,5]thieno[3,2-d]pyrimidine] | < 2 nM |
| CCOc1nc(N2CCNCC2)nc2c1sc1nc(N3CCSCC3)cc(C)c12 [4-Ethoxy-9-methyl-7-thiomorpholino-2-(piperazin-1-yl)-pyrido[3′,2′:4,5]thieno[3,2-d]pyrimidine-hydrochloride] | 2 to 50 nM |
| CCOc1nc(N2CCNCC2)c2sc3nc(-c4cccs4)cc(C)c3c2n1 [2-Ethoxy-9-methyl-7-thien-2-yl-9-methyl-4-(piperazin-1-yl)-pyrido[3′,2′:4,5]thieno[3,2-d]pyrimidine] | 2 to 50 nM |
| CCOc1nc(N2CCNCC2)nc2c1sc1nc(-c3ccc(SC)cc3)cc(CC)c12 [4-Ethoxy-9-ethyl-7-(4-methylthio-phenyl)-2-(piperazin-1-yl)-pyrido[3′,2′:4,5]thieno[3,2-d]pyrimidine] | < 2 nM |

| Structure (SMILES) | IC50 |
| --- | --- |
| CCOc1nc(N2CCNCC2)nc2c1sc1nc(-c3ccc(-c4ccccc4)cc3)nc(C)c12 [7-(4-Biphenyl)-4-ethoxy-9-methyl-2-piperazin-1-yl-thieno[2,3-d:4,5-d′]dipyrimidine] | 2 to 50 nM |
| CCCc1nc(N2CCNCC2)c2sc3nc(-c4ccccc4)cc(C)c3c2n1 [9-Methyl-7-phenyl-4-(piperazin-1-yl)-2-n-propyl-pyrido[3′,2′:4,5]thieno[3,2-d]pyrimidine] | 2 to 50 nM |
| CCOc1nc(N2CCNCC2)nc2c1sc1nc(-c3ccc(-c4cccnc4)cc3)nc(C)c12 [4-Ethoxy-9-methyl-2-piperazin-1-yl-7-(4-[3-pyridyl]-phenyl)-thieno[2,3-d:4,5-d′]dipyrimidine] | < 2 nM |
| CCOc1nc(N2CCNCC2)nc2c1sc1nc(N3CCN(C)CC3)c3c(c12)CCCC3 [8-Ethoxy-5-(N-methyl-piperazin-1-yl)-10-piperazin-1-yl-pyrimido[4′,5′:4,5]thieno[2,3-c]-1,2,3,4-tetrahydro-isoquinoline] | 2 to 50 nM |
| CCCCOc1ccc(Oc2ccc(-c3nc(C)c4c(n3)sc3c(OCC)nc(N5CCNCC5)nc34)cc2)cc1 [7-(4-[4-n-Butoxy-phenoxy]phenyl)-4-ethoxy-9-methyl-2-piperazin-1-yl-thieno[2,3-d:4,5-d′]dipyrimidine] | 2 to 50 nM |
| CCOc1ccc(-c2cc(CC)c3c(n2)sc2c(OCC)nc(N4CCNCC4)nc23)cc1 [4-Ethoxy-7-(4-ethoxy-phenyl)-9-ethyl-2-(piperazin-1-yl)-pyrido[3′,2′:4,5]thieno[3,2-d]pyrimidine] | < 2 nM |
| CCOc1nc(N2CCNCC2)nc2c1sc1nc(-c3ccc(-c4cccc(C(=O)OC)c4)cc3)nc(C)c12 [4-(4-Ethoxy-9-methyl-2-piperazin-1-yl-thieno[2,3-d:4,5-d′]dipyrimidin-7-yl)-biphenyl-3′-carboxylic acid methyl ester] | 2 to 50 nM |
| CCOc1nc(N2CCNCC2)nc2c1sc1nc(C(C)C)cc(C(C)C)c12 [4-Ethoxy-7,9-di-iso-propyl-2-(piperazin-1-yl)-pyrido[3′,2′:4,5]thieno[3,2-d]pyrimidine] | 2 to 50 nM |
| CCOc1nc(N2CCNCC2)c2sc3nc(-c4ccc(C)cc4)cc(CC)c3c2n1 [2-Ethoxy-9-ethyl-7-(4-methyl-phenyl)-4-(piperazin-1-yl)-pyrido[3′,2′:4,5]thieno[3,2-d]pyrimidine] | < 2 nM and 2 to 50 nM |
| CCOc1nc(N2CCNCC2)nc2c1sc1nc(-c3ccc(OC(C)C)cc3)nc(C)c12 [4-Ethoxy-9-methyl-2-piperazin-1-yl-7-(4-iso-propoxy-phenyl)-thieno[2,3-d:4,5-d′]dipyrimidine] | 2 to 50 nM |
| CCOc1nc(N2CCNCC2)nc2c1sc1nc(-c3ccc(C#N)cc3)cc(C(F)(F)F)c12 [7-(4-Cyano-phenyl)-4-ethoxy-2-piperazin-1-yl-9-trifluoromethyl-pyrido[3′,2′:4,5]thieno[3,2-d]pyrimidine] | 2 to 50 nM |
| CCOc1nc(N2CCNCC2)nc2c1sc1nc(-c3ccccc3)c3c(c12)CCCC3 [8-Ethoxy-5-phenyl-10-piperazin-1-yl-pyrimido[4′,5′:4,5]thieno[2,3-c]-1,2,3,4-tetrahydro-isoquinoline-hydrochloride] | 2 to 50 nM |
| Cc1cc(-c2ccccc2)nc2sc3c(OCC(F)F)nc(N4CCNCC4)nc3c12 [4-(2,2-Difluoro-ethoxy)-9-methyl-7-phenyl-2-(piperazin-1-yl)-pyrido[3′,2′:4,5]thieno[3,2-d]pyrimidine] | 2 to 50 nM |
| CCOc1nc(N2CCNCC2)nc2c1sc1nc(-c3ccc(-c4c(C)noc4C)cc3)nc(C)c12 [7-(4-[3,5-Dimethyl-isoxazol-4-yl]-phenyl)-4-ethoxy-9-methyl-2-piperazin-1-yl-thieno[2,3-d:4,5-d′]dipyrimidine] | < 2 nM |
| CCOc1nc(N2CCNCC2)nc2c1sc1nc(-c3ccc(Br)cc3)cc(C)c12 [7-(4-Bromo-phenyl)-4-ethoxy-9-methyl-2-(piperazin-1-yl)-pyrido[3′,2′:4,5]thieno[3,2-d]pyrimidine] | 2 to 50 nM |
| CCOc1nc(N2CCNCC2)nc2c1sc1nc(-c3ccc(N)cc3)cc(C(F)(F)F)c12 [7-(4-Amino-phenyl)-4-ethoxy-2-piperazin-1-yl-9-trifluoromethyl-pyrido[3′,2′:4,5]thieno[3,2-d]pyrimidine] | 2 to 50 nM |
